The assay deals with weibliche gravide Raten. The assay can be described thus: abortive effect (inhibition of fertility) in pregnant rats, subcutaneous treatment. The class given is in vivo. As to conditions: Gesamtdosis 2 mg/Tier/4d, subkutan in Erdnußöl, 5. bis 8. Graviditätstag, Autopsie am 20. Graviditätstag; for Fertilitätshemmung absol.: N = 6. An excerpt:
Zur Kennzeichnung der antigestagenen Wirkung dient die tierexperimentell ermittelt abortive Wirkung der Substanzen. Zu diesem Zweck wurden weibliche gravide Raten (positiver Spermiennachweis = 1 Graviditätstag) im Gewicht zwischen 180 und 200 g am 5. bis 8. Graviditätstag mit der Testverbindung in Erdnußöl suspendiert subkutan behandelt. Nach Autopsie am 20. Graviditätstag wurden die Uterie untersucht. Dabei wurde die Anzahl der graviden Weibchen und die durchschnittliche Zahl der Feten pro gravides Tier festgestellt. Der Hemmeffekt wurde wie folgt berechnet: [formula]

`CC#C[C@]1(O)CC[C@H]2[C@@H]3CCC4=CC(=O)CCC4=C3[C@@H](c3ccc(N(C)C)cc3)C[C@@]21C` [RU 486, 11β-(4-Dimethylaminophenyl)-17β-hydroxy-17α-(prop-1-inyl)-4,9-estradien-3-on, reference compound] displayed a Fertilitätshemmung rel. % of 80%.
As to `COCC1(OC)CCC2C3CCC4=CC(=O)CCC4=C3C(c3ccc(C(C)=O)cc3)CC21C` (stereo not drawn) [11β-(4-Acetylphenyl)-17β-methoxy-17α-methoxymethyl-estra-4,9-dien-3-on], the Fertilitätshemmung rel. % is listed as 100% and the Fertilitätshemmung absol. worked out at 6.
The molecule `C#C[C@]1(OC)CC[C@H]2[C@@H]3CCC4=CC(=O)CCC4=C3[C@@H](c3ccc(C(C)=O)cc3)C[C@@]21C` [17β-Methoxy-17α-ethinyl-11β-acetylphenyl, 11β-(4-Acetylphenyl)-17α-ethinyl-17β-methoxy-13-methyl-gona-4,9-dien-3-on] gave a Fertilitätshemmung rel. % of 100% and a Fertilitätshemmung absol. of 6.
Molecule `CO[C@@]12C[C@@H]1C[C@H]1[C@@H]3CCC4=CC(=O)CCC4=C3[C@@H](c3ccc(C(C)=O)cc3)C[C@@]12C` [11β-(4-Acetylphenyl)-17β-methoxy-16α,17α-methylen-estra-4,9-dien-3-on] gave a Fertilitätshemmung rel. % of 100% and a Fertilitätshemmung absol. of 6.
For `CC#CC1(OC)CCC2C3CCC4=CC(=O)CCC4=C3C(c3ccc(N(C)C)cc3)CC21C` (stereo not drawn) [11β-(4-Dimethylaminophenyl)-17β-methoxy-17α-propinyl-13-methyl-gona-4,9-dien-3-on] the same measures were 100% and 6.
For `CC#CC1(OC)CCC2C3CCC4=CC(=O)CCC4=C3C(c3ccc(C(C)=O)cc3)CC21C` (stereo not drawn) [11β-(4-Acetylphenyl)-17β-methoxy-17α-propinyl-13-methyl-gona-4,9-dien-3-on] the same measures were 100% and 6.

The values are drawn from EP0411733A2, “11-Beta-aryle-gona-4,9-dien-3-ones” (SCHERING AKTIENGESELLSCHAFT, priority 1989, dated 1991).
